Laboratory results: US4794187A, “^35 S-labelled 1.4-dihydropyridines” (Bayer Aktiengesellschaft, priority 1986, dated 1988)

Key:
skeletal muscle receptor = target: T1, skeletal muscle receptor (Homo sapiens, UniProt Q13698); assay: binding to the skeletal muscle 1,4-dihydropyridine receptor (radioligand dissociation); settings: 37° C., read-out: dissociation rate constant (converted)
T1 construct: dissociation rate constant (at 37° C.) of 0.070±0.01 min^-1 on skeletal muscle; from tissue

brain receptor = assay: binding to the brain 1,4-dihydropyridine receptor (radioligand dissociation); settings: 37° C.

T1 sequence (Q13698 whole entry): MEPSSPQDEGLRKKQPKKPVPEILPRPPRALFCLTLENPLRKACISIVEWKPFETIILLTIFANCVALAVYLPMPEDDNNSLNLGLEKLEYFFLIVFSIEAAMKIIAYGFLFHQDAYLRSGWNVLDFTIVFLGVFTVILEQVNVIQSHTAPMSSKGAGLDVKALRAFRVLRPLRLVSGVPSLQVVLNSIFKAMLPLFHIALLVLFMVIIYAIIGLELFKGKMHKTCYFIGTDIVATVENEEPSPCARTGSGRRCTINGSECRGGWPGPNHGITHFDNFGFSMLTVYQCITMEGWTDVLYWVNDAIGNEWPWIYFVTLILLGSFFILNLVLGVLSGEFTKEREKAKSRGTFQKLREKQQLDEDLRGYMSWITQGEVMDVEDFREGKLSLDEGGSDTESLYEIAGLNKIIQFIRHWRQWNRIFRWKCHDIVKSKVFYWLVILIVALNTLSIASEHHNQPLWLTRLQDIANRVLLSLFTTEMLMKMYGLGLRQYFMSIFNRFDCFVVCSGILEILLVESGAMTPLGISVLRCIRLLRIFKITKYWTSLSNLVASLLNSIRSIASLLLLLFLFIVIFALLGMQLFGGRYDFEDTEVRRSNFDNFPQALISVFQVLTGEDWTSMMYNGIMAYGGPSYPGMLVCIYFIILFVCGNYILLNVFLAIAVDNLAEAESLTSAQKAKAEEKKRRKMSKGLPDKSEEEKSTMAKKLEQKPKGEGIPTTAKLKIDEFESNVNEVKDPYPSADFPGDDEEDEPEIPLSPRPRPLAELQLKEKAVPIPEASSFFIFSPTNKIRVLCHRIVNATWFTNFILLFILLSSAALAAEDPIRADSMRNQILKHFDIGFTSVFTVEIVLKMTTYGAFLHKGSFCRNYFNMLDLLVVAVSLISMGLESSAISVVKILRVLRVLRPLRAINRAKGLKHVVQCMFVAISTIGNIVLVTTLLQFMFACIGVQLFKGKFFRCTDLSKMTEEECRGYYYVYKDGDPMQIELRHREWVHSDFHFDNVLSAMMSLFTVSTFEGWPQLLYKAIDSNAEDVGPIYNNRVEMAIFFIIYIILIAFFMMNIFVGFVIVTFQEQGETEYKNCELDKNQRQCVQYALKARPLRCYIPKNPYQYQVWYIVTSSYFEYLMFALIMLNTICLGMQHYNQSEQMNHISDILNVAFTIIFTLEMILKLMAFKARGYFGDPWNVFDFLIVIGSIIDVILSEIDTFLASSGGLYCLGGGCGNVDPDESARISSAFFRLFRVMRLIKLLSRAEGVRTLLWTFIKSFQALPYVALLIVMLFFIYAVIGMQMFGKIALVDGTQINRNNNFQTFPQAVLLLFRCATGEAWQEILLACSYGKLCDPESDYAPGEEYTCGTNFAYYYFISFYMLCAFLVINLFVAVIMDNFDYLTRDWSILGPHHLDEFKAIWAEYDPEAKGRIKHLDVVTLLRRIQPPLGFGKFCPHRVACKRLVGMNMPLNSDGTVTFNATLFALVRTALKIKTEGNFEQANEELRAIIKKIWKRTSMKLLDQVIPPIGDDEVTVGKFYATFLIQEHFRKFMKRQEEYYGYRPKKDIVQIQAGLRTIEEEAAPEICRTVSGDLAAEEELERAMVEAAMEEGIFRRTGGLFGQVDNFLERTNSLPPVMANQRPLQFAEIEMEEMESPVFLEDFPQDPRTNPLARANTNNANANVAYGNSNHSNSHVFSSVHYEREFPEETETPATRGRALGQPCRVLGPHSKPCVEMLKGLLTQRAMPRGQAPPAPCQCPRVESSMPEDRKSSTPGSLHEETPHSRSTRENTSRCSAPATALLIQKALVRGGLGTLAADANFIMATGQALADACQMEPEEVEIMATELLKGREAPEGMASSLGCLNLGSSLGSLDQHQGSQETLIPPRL
T1 sequence (P54289 25-957 partner limits assumed): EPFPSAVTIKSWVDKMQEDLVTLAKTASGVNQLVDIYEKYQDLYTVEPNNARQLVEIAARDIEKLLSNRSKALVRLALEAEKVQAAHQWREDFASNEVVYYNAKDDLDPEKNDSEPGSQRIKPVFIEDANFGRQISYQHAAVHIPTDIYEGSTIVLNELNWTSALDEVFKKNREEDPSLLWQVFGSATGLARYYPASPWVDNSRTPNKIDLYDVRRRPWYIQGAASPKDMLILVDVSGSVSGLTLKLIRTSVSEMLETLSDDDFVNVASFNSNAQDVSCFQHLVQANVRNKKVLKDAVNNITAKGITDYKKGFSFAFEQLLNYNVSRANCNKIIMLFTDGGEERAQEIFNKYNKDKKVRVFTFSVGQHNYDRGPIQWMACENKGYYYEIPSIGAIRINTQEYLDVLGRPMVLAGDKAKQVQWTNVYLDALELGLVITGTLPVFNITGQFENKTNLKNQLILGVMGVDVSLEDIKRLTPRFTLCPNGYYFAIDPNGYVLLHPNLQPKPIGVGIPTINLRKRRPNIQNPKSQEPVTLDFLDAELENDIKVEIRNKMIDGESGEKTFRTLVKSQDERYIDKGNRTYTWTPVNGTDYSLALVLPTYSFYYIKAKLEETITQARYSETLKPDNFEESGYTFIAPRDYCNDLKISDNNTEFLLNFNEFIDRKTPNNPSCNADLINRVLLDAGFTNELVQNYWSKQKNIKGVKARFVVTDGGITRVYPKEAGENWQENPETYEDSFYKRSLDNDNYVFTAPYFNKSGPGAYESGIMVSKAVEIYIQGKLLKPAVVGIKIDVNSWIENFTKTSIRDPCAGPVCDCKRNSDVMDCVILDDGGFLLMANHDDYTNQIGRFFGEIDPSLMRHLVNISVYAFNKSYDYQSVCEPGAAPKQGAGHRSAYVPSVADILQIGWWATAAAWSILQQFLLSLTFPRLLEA
T1 sequence (P54289 958-1103 partner limits assumed): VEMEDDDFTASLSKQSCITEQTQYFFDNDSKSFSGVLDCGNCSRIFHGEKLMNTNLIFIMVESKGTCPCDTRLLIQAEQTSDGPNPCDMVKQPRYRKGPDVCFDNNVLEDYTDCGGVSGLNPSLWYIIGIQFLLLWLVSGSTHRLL
T1 sequence (Q02641 whole entry partner): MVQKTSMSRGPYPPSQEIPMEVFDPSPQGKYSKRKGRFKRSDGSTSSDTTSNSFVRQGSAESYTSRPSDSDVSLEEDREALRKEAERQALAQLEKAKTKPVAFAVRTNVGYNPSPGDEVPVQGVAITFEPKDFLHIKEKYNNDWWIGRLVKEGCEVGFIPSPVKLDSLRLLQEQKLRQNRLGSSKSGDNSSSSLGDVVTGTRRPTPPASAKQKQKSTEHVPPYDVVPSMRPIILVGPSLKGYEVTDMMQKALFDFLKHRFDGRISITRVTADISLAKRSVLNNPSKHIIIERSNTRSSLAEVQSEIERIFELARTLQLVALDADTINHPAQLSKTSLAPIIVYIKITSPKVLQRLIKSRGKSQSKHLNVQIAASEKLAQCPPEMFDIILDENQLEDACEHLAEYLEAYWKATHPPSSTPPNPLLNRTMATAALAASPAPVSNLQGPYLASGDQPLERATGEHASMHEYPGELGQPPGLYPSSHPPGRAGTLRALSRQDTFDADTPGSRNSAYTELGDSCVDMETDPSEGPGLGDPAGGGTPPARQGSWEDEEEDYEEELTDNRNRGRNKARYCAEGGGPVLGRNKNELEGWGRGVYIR
T1 sequence (Q06432 whole entry partner): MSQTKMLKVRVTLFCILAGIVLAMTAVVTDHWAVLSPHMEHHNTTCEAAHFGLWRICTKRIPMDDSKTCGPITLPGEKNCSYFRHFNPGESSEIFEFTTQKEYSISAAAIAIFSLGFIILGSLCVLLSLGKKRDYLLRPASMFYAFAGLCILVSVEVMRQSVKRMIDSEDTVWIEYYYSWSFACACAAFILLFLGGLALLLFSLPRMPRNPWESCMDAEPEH

CCOC(=O)C1=C(C)NC(C)=C(C(=O)OCCNC(=O)[C@H](CC[35S]C)NC(=O)OC(C)(C)C)C1c1ccccc1C(F)(F)F (some centres unmarked) [Example 1]
koff (skeletal muscle receptor): 0.00117 s⁻¹ | dissociation rate constant (brain receptor): 0.02 min⁻¹
